# According to patent US20080269174A1 (priority 2005, published 2008):
# Where “and” joins values, the source holds several entries; their conditions need not be identical. Identical values can stand only once. Like-named read-outs stand apart in the source and are kept apart here.
# Key:
# Experiment in all cases: microbe, parasite or virus in culture
# Type in all cases: cell-based
# Pythium ultimum = test system: Pythium ultimum
# Rhizoctonia solani = settings: 72 h, read-out: % activity observed
# Ustilago nuda = test system: Ustilago nuda
# Pyrenophora graminea = settings: for % activity observed: 72 hrs
# Fusarium graminearum = settings: for % activity observed: 48 hrs
# Monographella nivalis = settings: for % activity observed: 72 hrs
# Gaeumannomyces graminis = settings: for % activity observed: 72 hrs
# [1] = Globisporangium ultimum, 48 h, read-out: % activity observed
# [2] = Ustilago nuda, 48 h, read-out: % activity observed
# [3] = Pyrenophora graminea, 72 h, read-out: % activity observed
# [4] = Fusarium graminearum, 48 h, read-out: % activity observed, 10 ppm applied alone
# [5] = Monographella nivalis, 72 h, read-out: % activity observed
# [6] = Gaeumannomyces graminis, 72 h, read-out: % activity observed
smiles,measurement,setting,value
"CC1COC(Cn2cncn2)(c2ccc(Oc3ccc(Cl)cc3)cc2Cl)O1 (stereo not shown) [Difenconazole, Difenoconazole]",inhibition at 0.014 ppm,Pythium ultimum; [1],5%
same,inhibition at 0.041 ppm,Pythium ultimum; [1],0%
same,inhibition at 0.123 ppm,Pythium ultimum; [1],0%
same,inhibition at 0.37 ppm,Pythium ultimum; [1],0%
same,inhibition at 1.111 ppm,Pythium ultimum; [1],0%
same,inhibition at 3.333 ppm,Pythium ultimum; [1],0%
same,inhibition at 10 ppm,Pythium ultimum; [1],7%
same,inhibition at 0.014 ppm,Rhizoctonia solani,5%
same,inhibition at 0.041 ppm,Rhizoctonia solani,0%
same,inhibition at 0.123 ppm,Rhizoctonia solani,27%
same,inhibition at 0.37 ppm,Rhizoctonia solani,30%
same,inhibition at 1.111 ppm,Rhizoctonia solani,84%
same,inhibition at 3.333 ppm,Rhizoctonia solani,88%
same,inhibition at 10 ppm,Rhizoctonia solani,84%
same,inhibition at 0.014 ppm,Ustilago nuda; [2],4%
same,inhibition at 0.041 ppm,Ustilago nuda; [2],0%
same,inhibition at 0.123 ppm,Ustilago nuda; [2],0%
same,inhibition at 0.37 ppm,Ustilago nuda; [2],0%
same,inhibition at 1.111 ppm,Ustilago nuda; [2],0%
same,inhibition at 3.333 ppm,Ustilago nuda; [2],0%
same,inhibition at 10 ppm,Ustilago nuda; [2],60%
same,inhibition at 0.014 ppm,Pyrenophora graminea; [3],20%
same,inhibition at 0.041 ppm,Pyrenophora graminea; [3],29%
same,inhibition at 0.123 ppm,Pyrenophora graminea; [3],41%
same,inhibition at 0.37 ppm,Pyrenophora graminea; [3],70%
same,inhibition at 1.111 ppm,Pyrenophora graminea; [3],86%
same,inhibition at 3.333 ppm,Pyrenophora graminea; [3],87%
same,inhibition at 10 ppm,Pyrenophora graminea; [3],86%
same,inhibition at 0.014 ppm,"Fusarium graminearum; Fusarium graminearum, 48 h, read-out: % activity observed, 0.014 ppm applied alone",8%
same,inhibition at 0.041 ppm,"Fusarium graminearum; Fusarium graminearum, 48 h, read-out: % activity observed, 0.041 ppm applied alone",6%
same,inhibition at 0.123 ppm,"Fusarium graminearum; Fusarium graminearum, 48 h, read-out: % activity observed, 0.123 ppm applied alone",14%
same,inhibition at 0.37037 ppm,"Fusarium graminearum; Fusarium graminearum, 48 h, read-out: % activity observed, 0.3703704 ppm applied alone",16%
same,inhibition at 1.11111 ppm,"Fusarium graminearum; Fusarium graminearum, 48 h, read-out: % activity observed, 1.1111111 ppm applied alone",34%
same,inhibition at 3.33333 ppm,"Fusarium graminearum; Fusarium graminearum, 48 h, read-out: % activity observed, 3.3333333 ppm applied alone",73%
same,inhibition at 10 ppm,Fusarium graminearum; [4],92%
COCC(=O)N(c1c(C)cccc1C)[C@H](C)C(=O)OC [Mefenoxam],% activity observed,Ustilago nuda; 48 hrs,0% and 2% and 5% and 8%
same,% activity observed,Pyrenophora graminea,0% and 5%
same,% activity observed,Monographella nivalis,0%
same,% activity observed,Fusarium graminearum; 0.014 ppm applied alone,6%
same,% activity observed,Fusarium graminearum; 0.041 ppm applied alone,0%
same,% activity observed,Fusarium graminearum; 0.123 ppm applied alone,0%
same,% activity observed,Fusarium graminearum; 0.370 ppm applied alone,0%
same,% activity observed,Fusarium graminearum; 1.111 ppm applied alone,0%
same,% activity observed,Fusarium graminearum; 3.333 ppm applied alone,2%
same,% activity observed,Fusarium graminearum; 10.000 ppm applied alone,1%
same,% activity observed,Gaeumannomyces graminis,0% and 4% and 3%
CC(C)(C)C(O)(CCc1ccc(Cl)cc1)Cn1cncn1 (stereo not shown) [Tebuconazole],% activity observed,Pythium ultimum; 48 hrs,2% and 4% and 0%
same,inhibition at 0.123 ppm,Pythium ultimum; [1],1%
same,inhibition at 10 ppm,Pythium ultimum; [1],22%
same,inhibition at 3.333 ppm,Rhizoctonia solani,96%
same,inhibition at 10 ppm,Rhizoctonia solani,100%
same,inhibition at 0.014 ppm,Ustilago nuda; [2],0%
same,inhibition at 0.041 ppm,Ustilago nuda; [2],0%
same,inhibition at 10 ppm,Ustilago nuda; [2],26%
same,% activity observed,Pyrenophora graminea,54% and 89% and 74%
same,inhibition at 0.041 ppm,Pyrenophora graminea; [3],17%
same,inhibition at 0.123 ppm,Pyrenophora graminea; [3],48%
same,inhibition at 0.37 ppm,Pyrenophora graminea; [3],57%
same,inhibition at 1.111 ppm,Pyrenophora graminea; [3],77%
same,inhibition at 3.333 ppm,Pyrenophora graminea; [3],87%
same,inhibition at 10 ppm,Pyrenophora graminea; [3],94%
same,% activity observed,Monographella nivalis,6%
same,inhibition at 0.014 ppm,Monographella nivalis; [5],9%
same,inhibition at 0.041 ppm,Monographella nivalis; [5],3%
same,inhibition at 1.111 ppm,Monographella nivalis; [5],0%
same,inhibition at 3.333 ppm,Monographella nivalis; [5],62%
same,inhibition at 10 ppm,Monographella nivalis; [5],94%
same,% activity observed,Fusarium graminearum; 0.014 ppm applied alone,3% and 1%
same,% activity observed,Fusarium graminearum; 0.041 ppm applied alone,11% and 5% and 9%
same,% activity observed,Fusarium graminearum; 0.370 ppm applied alone,34% and 39%
same,% activity observed,Fusarium graminearum; 1.111 ppm applied alone,62% and 55%
same,% activity observed,Fusarium graminearum; 3.333 ppm applied alone,88%
same,% activity observed,Fusarium graminearum; 10.000 ppm applied alone,95% and 97%
same,inhibition at 0.0137 ppm,"Fusarium graminearum; Fusarium graminearum, 48 h, read-out: % activity observed, 0.0137 ppm applied alone",0%
same,inhibition at 0.0412 ppm,"Fusarium graminearum; Fusarium graminearum, 48 h, read-out: % activity observed, 0.0412 ppm applied alone",7%
same,inhibition at 0.1235 ppm,"Fusarium graminearum; Fusarium graminearum, 48 h, read-out: % activity observed, 0.1235 ppm applied alone",16%
same,inhibition at 0.37 ppm,"Fusarium graminearum; Fusarium graminearum, 48 h, read-out: % activity observed, 0.370 ppm applied alone",37%
same,inhibition at 0.3704 ppm,"Fusarium graminearum; Fusarium graminearum, 48 h, read-out: % activity observed, 0.3704 ppm applied alone",33%
same,inhibition at 1.111 ppm,"Fusarium graminearum; Fusarium graminearum, 48 h, read-out: % activity observed, 1.111 ppm applied alone",50%
same,inhibition at 1.1111 ppm,"Fusarium graminearum; Fusarium graminearum, 48 h, read-out: % activity observed, 1.1111 ppm applied alone",66%
same,inhibition at 3.333 ppm,"Fusarium graminearum; Fusarium graminearum, 48 h, read-out: % activity observed, 3.333 ppm applied alone",98%
same,inhibition at 3.3333 ppm,"Fusarium graminearum; Fusarium graminearum, 48 h, read-out: % activity observed, 3.3333 ppm applied alone",94%
same,inhibition at 10 ppm,Fusarium graminearum; [4],94%
same,inhibition at 10 ppm,"Fusarium graminearum; Fusarium graminearum, 48 h, read-out: % activity observed, 10.000 ppm applied alone",100%
same,% activity observed,Gaeumannomyces graminis,100%
same,inhibition at 0.041 ppm,Gaeumannomyces graminis; [6],16%
same,inhibition at 0.123 ppm,Gaeumannomyces graminis; [6],64%
same,inhibition at 0.37 ppm,Gaeumannomyces graminis; [6],97%
same,inhibition at 1.111 ppm,Gaeumannomyces graminis; [6],98%
same,inhibition at 3.333 ppm,Gaeumannomyces graminis; [6],98%
same,inhibition at 10 ppm,Gaeumannomyces graminis; [6],96%
